Experimental data reported in patent US8642633B2, “Di-substituted amides for enhancing glutamatergic synaptic responses” (Cortex Pharmaceutical, Inc., priority 2007, dated 2014).

Key:
[1] = system: AMPA receptor; test: In vivo electrophysiology: field EPSP amplitude in the dentate gyrus of anesthetized animals; set-up: species or system rat
Experimental: A. Enhancement of AMPA Receptor Function In Vivo.
Synaptic responses mediated by AMPA receptors are increased according to the method of the invention, using the compounds described herein.
(§1) The electrophysiological effects of the invention compounds were tested in vivo in anesthetized animals according to the following procedures. Animals are maintained under anesthesia by phenobarbital administered using a Hamilton syringe pump. Stimulating and recording electrodes are inserted into the perforant path and dentate gyrus of the hippocampus, respectively. Once electrodes are implanted, a stable baseline of evoked responses are elicited using single monophasic pulses (100 μs pulse duration) delivered at 3/min to the stimulating electrode. Field EPSPs are monitored until a stable baseline is achieved (about 20-30 min), after which a solution of test compound is injected intraperitoneally and evoked field potentials are recorded. Evoked potentials were recorded for approximately 2 h following drug administration or until the amplitude of the field EPSP returns to baseline. In the latter instance, it is common that an iv administration is also carried out with an appropriate dose of the same test compound. Invention compounds were assayed in the in vivo electrophysiology assay described above and data for representative test compounds is shown in column 1 in Table 1.
The electrophysiological effects of invention compounds were tested in vivo in anesthetized animals according to the following procedures.
as §1, with “Animals” for “The electrophysiological effects of the invention compounds were tested in vivo in anesthetized animals according to the following procedures. Animals”, “are” for “were”, “compound.” for “compound. Invention compounds were assayed in the in vivo electrophysiology assay described above and data for representative test compounds is shown in column 1 in Table 1.”

[2] = system: d-amphetamine stimulated locomotion in mice; test: Inhibition of d-amphetamine stimulated locomotion; format: in vivo; conditions: Mus musculus, ip, 18 mpk i.p., d-amphetamine 2 mg/kg
Experimental: B. Behavioral Testing: Inhibition of d-Amphetamine Stimulated Locomotion
The ability of the invention compounds to inhibit d-Amphetamine stimulated locomotor activity was assayed according to the following procedure. Male CD1 mice, 25-30 gm body weight, were brought into the experimental room and allowed at least 30 min of acclimation. Each mouse was placed into the testing enclosure with an infrared beam array that automatically monitors the animal's activity. Mice were habituated in the testing enclosure for 20 min, and then returned to their home cage. Mice were dosed intraperitoneally with test compound in appropriate vehicle 5 minutes before d-Amphetamine injection (2 mpk). Ten minutes after d-Amphetamine injection, mice were tested for locomotor activity for a total of […]. The data was computer collected and expressed as “arbitrary movement units.” All data were analyzed by comparing the groups treated with the test compound to the vehicle control group. The data shown is the % inhibition of hyperactivity induced by acute administration of 2 mg/kg d-amphetamine in mice. The compounds tested produced a statistically significant inhibition of d-amphetamine stimulated locomotion.
Male CD1 mice, 25-30 gm body weight, were brought into the experimental room and allowed at least 30 min of acclimation. Each mouse was placed into the testing enclosure with an infrared beam array that automatically monitors the animal's activity. Mice were habituated in the testing enclosure for 20 min, and then returned to their home cage. Mice were dosed intraperitoneally with test compound in appropriate vehicle 5 minutes before d-Amphetamine injection. Ten minutes after d-Amphetamine injection, mice were tested for locomotor activity for a total of 15 minutes. The data was computer collected and expressed as “arbitrary movement units.” All data were analyzed by comparing the groups treated with the test compound to the vehicle control group.

[3] = dosed intravenously (footnote 3)

melting point [°C] | SMILES | In vivo Electrophysiology: % increase in the amplitude of the field EPSP in the dentate gyrus of rat ([1]; 10mpk i.p.) [%] | further results
– | O=C(c1ccc2nccnc2c1)N1CCCCC1 [CX516, 1-(quinoxalin-6-ylcarbonyl)piperidine, reference compound] | – | increase in amplitude of the field EPSP ([1]; rat dentate gyrus, 50 mg/kg i.p.): 9%
134 to 135 | CN(C(=O)c1ccc2nonc2c1)C1CCCCC1 [Example 4, N-Cyclohexyl-N-methyl-[2,1,3]-benzoxadiazole-5-carboxamide] | 17 | inhibition in vivo at 18 mg/kg [2]: 80%
110 to 111 | CN(C(=O)c1ccc2nonc2c1)C1CCCC1 [Example 5, N-Cyclopentyl-N-methyl-[2,1,3]-benzoxadiazole-5-carboxamide] | 15 | –
51 to 52 | CN(C(=O)c1ccc2nonc2c1)C1CCC1 [Example 6, N-Cyclobutyl-N-methyl-[2,1,3]-benzoxadiazole-5-carboxamide] | 10 | inhibition in vivo at 18 mg/kg [2]: 37%
222 to 223 | CN(C(=O)c1ccc2nonc2c1)[C@H]1CC[C@@H](C#N)CC1 [Example 10, N-(cis-4-Cyanocyclohexyl)-N-methyl-[2,1,3]-benzoxadiazole-5-carboxamide] | – | –
– | CN(C(=O)c1ccc2nonc2c1)[C@H]1CC[C@H](C#N)CC1 [Example 11, N-(trans-4-cyanocyclohexyl)-N-methyl-[2,1,3]-benzoxadiazole-5-carboxamide] | 12 | –
– | CN(C(=O)c1ccc2nonc2c1)C1CCOCC1 [Example 12, N-Methyl-N-tetrahydro-2H-pyran-4-yl-[2,1,3]-benzoxadiazole-5-carboxamide] | 20 | inhibition in vivo at 18 mg/kg [2]: 66%
204 to 205 | O=C(NC1CCCOC1)c1ccc2nonc2c1 (stereo not shown) [Example 15, N-(Tetrahydro-2H-pyran-3-yl)-[2,1,3]-benzoxadiazole-5-carboxamide] | – | –
102 to 104 | CCN(C(=O)c1ccc2nonc2c1)C1CCOCC1 [Example 17, N-Ethyl-N-tetrahydro-2H-pyran-4-yl-[2,1,3]-benzoxadiazole-5-carboxamide] | 12 | inhibition in vivo at 18 mg/kg [2]: 23%
51 to 52 | CCN(C(=O)c1ccc2nonc2c1)C1CCCCC1 [Example 18, N-Cyclohexyl-N-ethyl-[2,1,3]-benzoxadiazole-5-carboxamide] | – | –
71 to 72 | CN(CC1CCCCC1)C(=O)c1ccc2nonc2c1 [Example 19, N-(Cyclohexylmethyl)-N-methyl-[2,1,3]-benzoxadiazole-5-carboxamide] | – | –
105 to 106 | CN(Cc1ccccc1)C(=O)c1ccc2nonc2c1 [Example 20, N-Benzyl-N-methyl-[2,1,3]-benzoxadiazole-5-carboxamide] | – | –
108 to 109 | O=C(c1ccc2nonc2c1)N(C1CCOCC1)C1CC1 [Example 24, N-Cyclopropyl-N-tetrahydro-2H-pyran-4-yl-[2,1,3]-benzoxadiazole-5-carboxamide] | – | –
134 to 135 | O=C(c1ccc2nonc2c1)N(CC(F)(F)F)C1CCOCC1 [Example 25, N-Tetrahydro-2H-pyran-4-yl-N-(2,2,2-trifluoroethyl)-[2,1,3]-benzoxadiazole-5-carboxamide] | – | In vivo Electrophysiology: % increase in the amplitude of the field EPSP in the dentate gyrus of rat [1, 3]: 10%^3
98 to 100 | CN(C(=O)c1ccc2nonc2c1)C1CCN(C(=O)OC(C)(C)C)CC1 [Example 26, tert-Butyl-4-[([2,1,3]-benzoxadiazol-5-ylcarbonyl)(methyl)amino]piperidine-1-carboxylate] | – | –
> 260 | CN1CCC(N(C)C(=O)c2ccc3nonc3c2)CC1 [Example 28, N-Methyl-N-(1-methylpiperidin-4-yl)-[2,1,3]-benzoxadiazole-5-carboxamide] | – | –
– | CN(C(=O)c1ccc2nonc2c1)C1CCSCC1 [Example 33, N-Methyl-N-(tetrahydro-2H-thiopyran-4-yl)-[2,1,3]-benzoxadiazole-5-carboxamide] | – | In vivo Electrophysiology: % increase in the amplitude of the field EPSP in the dentate gyrus of rat [1, 3]: 16%^3
130 to 131 | CN(C(=O)c1ccc2nccnc2c1)C1CCOCC1 [Example 36, N-Methyl-N-tetrahydro-2H-pyran-4-ylquinoxaline-6-carboxamide] | – | In vivo Electrophysiology: % increase in the amplitude of the field EPSP in the dentate gyrus of rat [1, 3]: 5%^3
183 to 184 | CN(C(=O)c1ccc2nonc2c1)C1CCC(=O)CC1 [Example 37, N-Methyl-N-(4-oxocyclohexyl)-[2,1,3]-benzoxadiazole-5-carboxamide] | 18 | inhibition in vivo at 18 mg/kg [2]: 100%
137 to 138 | CN(C(=O)c1ccc2nonc2c1)C1CCC(F)(F)CC1 [Example 40, N-(4,4-Difluorocyclohexyl)-N-methyl-[2,1,3]-benzoxadiazole-5-carboxamide] | 18 | inhibition in vivo at 18 mg/kg [2]: 84%
– | CN(C(=O)c1ccc2nonc2c1)[C@H]1CC[C@H](O)CC1 [Example 51, N-(4-trans-Hydroxycyclohexyl)-N-methyl-[2,1,3]-benzoxadiazole-5-carboxamide] | 21 | inhibition in vivo at 18 mg/kg [2]: 100%
– | CO[C@H]1CC[C@H](N(C)C(=O)c2ccc3nonc3c2)CC1 [Example 53, N-(trans-4-Methoxycyclohexyl)-N-methyl-[2,1,3]-benzoxadiazole-5-carboxamide] | 17 | inhibition in vivo at 18 mg/kg [2]: 94%
– | CO[C@H]1CC[C@H](N(C)C(=S)c2ccc3nonc3c2)CC1 [Example 54, N-(trans-4-Methoxycyclohexyl)-N-methyl-[2,1,3]-benzoxadiazole-5-carbothioamide] | – | In vivo Electrophysiology: % increase in the amplitude of the field EPSP in the dentate gyrus of rat [1, 3]: 18%^3
– | CN(C(=O)c1ccc2nonc2c1)[C@H]1CC[C@H](n2ncnn2)CC1 [Example 56, N-Methyl-N-[trans-4-(2H-tetrazol-2-yl)cyclohexyl]-[2,1,3]-benzoxadiazole-5-carboxamide] | 19 | –
119 to 120 | CN(C(=O)c1ccc2nonc2c1)C1CCCC(F)(F)C1 (stereo not shown) [Example 62, N-Methyl-N-(3,3-difluorocyclohexyl)-[2,1,3]-benzoxadiazole-5-carboxamide] | – | –
101 to 102 | CN(C(=O)c1ccc2nonc2c1)C1CCCCC1(F)F (stereo not shown) [Example 65, N-Methyl-N-(2,2-difluorocyclohexyl)-[2,1,3]-benzoxadiazole-5-carboxamide] | – | –
91 to 92 | O=C(NC1CCOC(O)C1)c1ccc2nonc2c1 (stereo not shown) [Example 66, N-(2-Hydroxytetrahydro-2H-pyran-4-yl)-[2,1,3]-benzoxadiazole-5-carboxamide] | – | –
169 to 171 | CN(C(=O)c1ccc2nonc2c1)C1CCOC(=O)C1 (stereo not shown) [Example 68, N-Methyl-N-(2-oxotetrahydro-2H-pyran-4-yl)-[2,1,3]-benzoxadiazole-5-carboxamide] | – | –
< 90 | CN(C(=O)c1ccc2nonc2c1)C1CCOC(O)C1 (stereo not shown) [Example 69, N-(2-Hydroxytetrahydro-2H-pyran-4-yl)-N-methyl-[2,1,3]-benzoxadiazole-5-carboxamide] | – | –
– | CN(C(=O)c1ccc2nonc2c1)[C@@H]1CCOC1 [Example 73, N-Methyl-N—(R)-tetrahydrofuran-3-yl-[2,1,3]-benzoxadiazole-5-carboxamide] | 13 | –
